Consider two substances from patent US11781984B2, “Fluorescent method to quantify copper or platinum based on catalysis” (University of Pittsburgh—Of the Commonwealth System of …, priority 2018, dated 2023).

Data set [1] relates to HeLa cells. The data set is described as follows: Fluorescence imaging of platinum in live HeLa cells. Format: cell-based. As to conditions: 1 μM APE, 200 μM TFPP, 1 mM K2PtCl4, 20 min. The procedure: We then applied this method for cellular imaging. HeLa cells were seeded in 35-mm dishes and were incubated overnight in an incubator (37° C., 5% CO2 atmosphere) in DMEM supplemented with 10% bovine calf serum and 1% penicillin/streptomycin. Cells were loaded with APE and TFPP to a final concentration of 1 μM and 200 μM, respectively, in 1% DMSO in DMEM for 20 min. Following this, cells were washed twice with ˜2 mL HBSS. HBSS was used as the imaging medium. Brightfield images were taken, as well as the initial fluorescence image. Immediately after taking the first fluorescence image, a solution of K2PtCl4 in PBS was added to a final concentration of 1 mM.
Cellular images were taken using an Olympus IX81 microscope with a 10× objective. Brightfield images were taken using a 3 ms exposure. Fluorescence images were taken as a time series, with an image taken every 30 s for 20 min, using an 850 ms exposure. Images were processed using ImageJ software; background fluorescence was removed from the fluorescence images using a rolling ball radius of 50.0 pixels.

Data set [2] can be described thus: Kinetic study to determine turnover frequency of copper-mediated depropargylation of PPE. Conditions: 200 nM Cu^2+, 20 μM PPE, 160 μM DMAPPP. The procedure:
To determine whether this method was a catalytic method, we monitored the reaction over time (FIG. 11). A standard curve was prepared for dichlorofluorescein (DCF) by dissolving the solid in EtOH to a concentration of 20 mM. The DCF was then diluted to 500 μM in EtOH. A stock solution was prepared by adding 500 mM pH 8.5 borate buffer (600 μL), EtOH (81.6 μL), 500 μM DCF in EtOH (32 μL), 20 mM DMAPPP in DMSO (6.4 μL). This stock solution (200 μL) was then transferred to a black 96-well plate.
The diluent was prepared by mixing 500 mM borate pH 8.5 buffer (9.00 mL), EtOH (1.70 mL), and 20 mM DMAPPP in DMSO (96 μL). The diluent (100 μL) was transferred to the black 96-well plate. 2× serial dilutions were performed by removing 100 μL of the stock solution from the wells and adding it to the wells containing the diluent. […] The fluorescence of these solutions was measured and a standard curve was generated.
The working solution was prepared by mixing 500 mM borate pH 8.5 buffer (1.20 mL), EtOH (187 μL), 800 μM PPE in EtOH (40 μL), 20 mM DMAPPP in DMSO (12.8 μL) in a conical tube. […] 0 or 2.0 μM Cu^2+ (20 μL) was then added to the wells and the fluorescence was measured every 5 min for 2 h.
The fluorescence value was converted to a concentration of Pittsburgh Green using the linear regression generated from the standard curve of DCF. The fluorescence vs. time was then plotted.

Data set [3] deals with HeLa cells. In words: Fluorescence imaging of copper ions in live HeLa cells. Format: cell-based. As to conditions: HeLa cells loaded with 1 mM CuSO4, 20 μM PPE, 160 μM DMAPPP, 15 min. On the procedure:
Finally, we applied our method to imaging cellular pools of copper. HeLa cells were loaded with 1 mM CuSO4 in DMEM for 30 min at 37° C. The cells were washed. PPE and DMAPPP were added during imaging to a final concentration of 20 μM and 160 μM, respectively. Images were obtained on a Nikon Ti microscope equipped with a 60× (1.4 NA) objective.

A short description of data set [4]: Fluorescence intensity of Pittsburgh Green versus PPE. It is filed as physicochemical. The procedure:
All fluorescence measurements were obtained using a Modulus II Microplate Multimode Reader. Fluorescence was measured after exciting samples with 490 nm light and emission was measured between 510-570 nm. All fluorescence measurements were obtained at room temperature.

For allyl Pittsburgh Green ether [APE], in data set [1], the “increase of fluorescence intensity in cells” value worked out at 1.5 fold.
Turning to Propargyl Pittsburgh Green ether [PPE], the “concentration of reaction product (Pittsburgh Green) produced” value in data set [2] (after one hour) is listed as “approximately 480 nM”. In data set [2] (borate pH 8.5), the turnover frequency is about 2.4 per hour. Moreover, in data set [3], the fluorescence within cells result is reported as “time-dependent increase in fluorescence”. Besides, in data set [4], the “ratio of fluorescence intensities Pittsburgh Green fluorophore : PPE” value is reported as 200-400 :1.
